# Paper PMC11423305, “Structure-Based Design of CBP/EP300 Degraders: When Cooperativity Overcomes Affinity” (JACS Au, 2024)
# Target: T1, CBP-BRD:CRBN thalidomide binding domain ternary complex (Homo sapiens, UniProt Q92793+Q96SW2)
# T1 construct: GST-CBP (human, residues 1081-1197); the C-terminus of CRBN (human, residues 318-442); His6 with TEV cleavage site (N, cleaved yes); made in house; host or cells: Rosetta (DE3) cells (E. coli)
# Assay: TR-FRET CBP-BRD:PROTAC:CRBN ternary complex formation
# Method: (PMSF), and 1 mM EDTA) and lysed by sonication. The lysates were clarified by centrifugation (18,000 rpm, 4 °C, 1 h).
# For GST-CBP the soluble proteins were loaded onto a column packed with glutathione sepharose 4B (GE Healthcare) and subsequently eluted with 10 mM reduced glutathione in buffer containing 20 mM Tris-HCl pH 8.0, and 150 mM NaCl. Finally, a size exclusion step (HiLoad 16/600 Superdex 200 pg column from GE Healthcare) was used to further purify the protein in buffer containing 50 mM HEPES pH 7.5 and 150 mM NaCl. For His-CRBN and His-CRBN-Avi(biotin), the soluble fractions were loaded onto the HisTrap FF crude column (GE Healthcare) and washed with lysis buffer supplemented with 50 mM imidazole. The proteins were eluted with a buffer containing 250 mM imidazole, 100 mM Tris-HCl pH 8.0 and 500 mM NaCl. For His-CRBN-Avi(biotin) only, recombinant TEV protease was used to cleave the His6-tag during overnight dialysis at 4 °C against buffer containing 100 mM Tris-HCl pH 8.0 and 500 mM NaCl. The dialyzed sample was passed through the HisTrap FF crude column to remove His6-tagged TEV protease and uncleaved protein. […]
# The maximal control contained no PROTAC, the blank contained no SK-20 and no PROTAC – these were replaced by the appropriate buffer. […] The samples were incubated for 3 h (20 °C, dark) and the signal was detected using the Infinite M1000 plate reader (Tecan). After excitation at 317 nm, emission at 620 and 665 nm was recorded. […]
# were determined according to the following equation:
# activity (%) = ΔF ∗ 100 = F−Fb ∗ 100 , where Ft is the TR-FRET signal in the absence of any compound (maximal control, 100 % activity), Fb the TR-FRET signal in the absence of the GST -CBP (blank, 0 % activity) and F the TR -FRET signal in the presence of the compound. Dose -response curves were plotted in GraphPad Prism 10.2.3 and fitted with nonlinear regression “log(inhibitor) vs. normalized response – variable slope”, from which IC 50 values were determined. […]
# T1 sequence (Q92793 1081-1197): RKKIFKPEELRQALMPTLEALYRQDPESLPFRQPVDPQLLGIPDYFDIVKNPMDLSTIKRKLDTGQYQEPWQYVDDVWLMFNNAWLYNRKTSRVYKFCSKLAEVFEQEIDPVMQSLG
# T1 sequence (Q96SW2 318-442): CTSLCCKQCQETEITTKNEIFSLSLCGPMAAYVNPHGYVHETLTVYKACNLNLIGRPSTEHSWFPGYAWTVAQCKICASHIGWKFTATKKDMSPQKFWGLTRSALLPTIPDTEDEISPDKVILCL
structure (smiles),measurement,setting,value
Cc1cc2c(NC(=O)c3cc(NC(=O)CCCCCCCCCCNc4cccc5c4C(=O)N(C4CCC(=O)NC4=O)C5=O)cc(-c4ccn(C)n4)c3)cccc2nn1 (centres unmarked) [dCE-2],ternary complex formation (TR-FRET),CBP-BRD and CRBN-thalidomide binding domain labeled with TR-FRET pair,robust formation of the ternary complex
same,PROTAC concentration at peak of hook curve,TR-FRET ternary complex,around 1 μM
